Data on one compound can be found in patent US20230241072A1, “ANTHRACYCLINE DERIVATIVES” (ALMAC DISCOVERY LIMITED, priority 2019, published 2023).

What is called IC50 is the concentration that inhibits the measured activity by half. A higher IC50 goes with weaker potency in that assay.

One series concerns A549. In words: Free payload potency in cell lines (96 h): A549. The following applies: A549 (Lung). Format: cell-based, human. As for the experimental part: (§1) The potency of the EDA-PNU159682 derivative (FIG. 1) was tested in a variety of cell lines.
The test system of the next series is A2780. The following applies: ovarian cell line A2780; cited from earlier work.
Series [1] can be described thus: Mouse plasma half-life of free payloads (parallel study). It counts as in vitro ADME. The following applies: free payload. Here is the method:
For both the vc-PAB-DMAE-PNU and vc-PAB-EDA-PNU conjugates liberation of some free payload could be detected as a function of time, with 217 nM PNU159682 and 114 nM of EDA-PNU159682 derivative detected after 120 h respectively. Note, in a parallel study, we calculated the mouse plasma half-lives of the free PNU159682 and EDA-PNU159682 derivatives to be 33 h and 116 h respectively.

The next series has as its system NCI-N87. The series is described as follows: Free payload potency in cell lines (96 h): NCI-N87. Format: cell-based. The note with it: NCI-N87 (Stomach). Here is the method:
as §1

The subject of a further series is DU145. The series is described as follows: Free payload potency in cell lines (96 h): DU145. Format: cell-based. The following applies: DU145 (Prostate). Here is the method: as §1
The subject of a further series is PA-1. In words: Free payload potency in cell lines (96 h): PA-1. It counts as cell-based, human. The note with it: PA-1 (Ovarian). As for the experimental part:
as §1

A further series has as its system MDA-231. In words: Free payload potency in cell lines (96 h): MDA-231. The following applies: MDA-231 (Breast). Format: cell-based. As for the experimental part: as §1
A further series relates to ACHN. The series is described as follows: Free payload potency in cell lines (96 h): ACHN. Format: cell-based. The note with it: ACHN (Kidney). Here is the method:
as §1

The test system of another series is Mino. The series is described as follows: Free payload potency in cell lines (96 h): Mino. It counts as cell-based. The following applies: Mino (MCL). Here is the method: as §1
In another series the test system is Kasumi-2. The series is described as follows: Free payload potency in cell lines (96 h): Kasumi-2. The note with it: Kasumi-2 (BCL). It counts as cell-based, human. As for the experimental part:
as §1

The test system of the next series is Hs746T. The series is described as follows: Free payload potency in cell lines (96 h): Hs746T. It counts as cell-based. The following applies: Hs746T (Stomach). Here is the method: as §1
A further series has as its system Panc-1. The series is described as follows: Free payload potency in cell lines (96 h): Panc-1. It counts as cell-based. The following applies: Panc-1 (Pancreatic). As for the experimental part: as §1
For another series, the system named is MCF7. The note with it: breast cancer cell line MCF7; cited from earlier work.
Another series deals with A427. In words: Free payload potency in cell lines (96 h): A427. It counts as cell-based. The note with it: A427 (Lung). As for the experimental part:
as §1

The next series deals with PC-9. The series is described as follows: Free payload potency in cell lines (96 h): PC-9. The note with it: PC-9 (Lung). It counts as cell-based. As for the experimental part: as §1
The subject of a further series is 697. The series is described as follows: Free payload potency in cell lines (96 h): 697. Format: cell-based, human. The following applies: 697 (BCL). As for the experimental part:
as §1

In another series the test system is JeKo-1. The series is described as follows: Free payload potency in cell lines (96 h): JeKo-1. The following applies: JeKo-1 (MCL). It counts as cell-based. As for the experimental part: as §1
In series [2] the test system is PA-1 32.35 (Ovarian ROR1 −/−). The series is described as follows: Free payload potency in cell lines (96 h): PA-1 32.35. It counts as cell-based, human. As for the experimental part: as §1
For another series, the system named is MHH-ES1. In words: Free payload potency in cell lines (96 h): MHH-ES1. The note with it: MHH-ES1 (Ewings sarcoma). Format: cell-based, human. Here is the method: as §1
A further series has as its system MDA-468. In words: Free payload potency in cell lines (96 h): MDA-468. Format: cell-based. The following applies: MDA-468 (Breast). As for the experimental part: as §1
Series [3] concerns PA-1 31-J-06 (Ovarian ROR1 −/−). In words: Free payload potency in cell lines (96 h): PA-1 31-J-06. It counts as cell-based, human. As for the experimental part: as §1

For the compound `COc1cccc2c1C(=O)c1c(O)c3c(c(O)c1C2=O)C[C@@](O)(C(=O)CO)C[C@@H]3O[C@H]1C[C@H]2[C@H](O[C@@H]3[C@@H](OC)OCCN32)[C@H](C)O1` [PNU159682], the IC50 in the series on A549 turned out to be 0.013 nM; with NCI-N87 it was 0.122 nM; with DU145, 0.022 nM; with PA-1, 0.0044 nM; in the series with MDA-231 it was 0.011 nM; in the series with ACHN, 0.0097 nM. In addition, the IC50 was 0.037 nM in the series with Mino; 0.0024 nM with Kasumi-2; 0.049 nM in the series with Hs746T; 0.026 nM in the series on Panc-1; 0.0098 nM with A427; 0.047 nM with PC-9. Moreover, the IC50 with 697 was 0.008 nM; with JeKo-1 it was 0.044 nM; in series [2], 0.0014 nM; in the series with MHH-ES1, 0.0034 nM; in the series on MDA-468 it was 0.021 nM; in series [3], 0.0022 nM. The “potency for in vitro cell killing” value in the series with A2780 and with MCF7 was “pico- to femtomolar range” each time. In series [1], the mouse plasma half-life was 33 h.
